The results in this text go back to US4801607A, “Antiviral furanoditerpenoids” (Harbor Branch Oceanographic Institution, Inc., priority 1987, dated 1989).

For data set [1], the system named is P388 mouse leukemia cells. The data set can be described thus: P388 mouse leukemia cell assay. Type of data set: cell-based. To be noted: 48 hours. The method, then: P388 mouse leukemia cells are grown in Dulbecco's minimum essential medium with Earle's salts (MEM) with 10% horse serum, 4 mM glutamine, and 20 ug/ml gentamicin (Biologos, Inc.). Cells are incubated in 10% CO2 and subcultured 2 times per week. 1. Add compound to each well of a 24-well plate or tube and allow solvent to evaporate to dryness. 2. Add 2 ml (1.2×10^5) cells to each well or tube and mix. 3. Incubate in 10% CO2 at 37° for 48 hours. 4. Read plates with an inverted microscope, scoring activity from 1+ to 4+ as follows: ND (not detectable),>90%; 1+, 75-90%; 2+, 50-74%; 3+, 25-49%; 4+, <25% of control growth. Cell counts are performed on each tube and results are reported as percent of control. Positive control--Vinblastine or Vincristine in aqueous solution.

Data set [2] deals with VSV. Type of data set: cell-based, vesicular stomatitis virus.
In data set [3] the test system is HSV-1. The data set can be described thus: Antiviral disc assay, HSV-1 in CV-1 cells. Format: cell-based, herpes simplex type 1.
Data set [4] relates to HCT-8 human colon tumor cells. The data set can be described thus: Human tumor cell line assay, HCT-8 colon. Type of data set: cell-based. To be noted: 120 hours, read-out: Antitumor activity, HCT-8. On the procedure:
(§1) HCT-8 human colon tumor cells are grown in RPM1 1640 medium (GIBCO). A-549 human lung carcinoma cells are cultured in Dulbecco medium (Biologos, Inc.). MCF-7, MDA-MB 231 and T47D human breast carcinoma cells are grown in Eagles MEM medium. All media are supplemented with 10% fetal bovine serum and contain 50 μg/ml gentamicin. All human tumor cell lines are incubated in 5% CO2 at 37° and subcultured once a week. The seeding levels are 350,000 MCF-7 cells, 60,000 HCT-8 cells and 300,000 A-549 cells per T25 flask.
(§2) 2. Incubate in 5% CO2 for 48 hours.
(§3) 3. Add compound (50 μg)to each well and incubate for an additional 120 hours.
(§4) 4. Discard medium and stain with methylene blue (HCT-8) or crystal violet (A549 and MCF-7) for 30 minutes.
(§5) 5. Compare cell density of drug-treated well with that of the control (no drug added) as follows: ND (not detectable), >90%; 1+, 75-90%; 2+, 50-74%; 3+, 25-49%, 4+, <25% of control growth.

Data set [5] concerns A-549 human lung carcinoma cells. The data set is described as follows: Human tumor cell line assay, A-549 lung. To be noted: 120 hours, read-out: Antitumor activity, A-549. Type of data set: cell-based. On the procedure: as §1, §2, §3, §4, §5
In data set [6] the test system is MDA-MB 231 human breast carcinoma cells. The data set is described as follows: Human tumor cell line assay, MDAMB mammary. Type of data set: cell-based. To be noted: 120 hours, read-out: Antitumor activity, MDAMB. On the procedure: as §1, §2, §3, §4, §5
In data set [7] the test system is human tumor cell lines. The data set is described as follows: Human tumor cell line assay (cell lines together). Type of data set: cell-based. Conditions: 120 h, in concentrations of at least 10 μg/ml, read-out: concentrations with good activity against human tumor cell lines. On the procedure:
as §1, §2, §3, §4, §5

For data set [8], the system named is CV-1 cells. The data set can be described thus: Cytotoxicity in the antiviral disc assay.

In brackets after ≈: the same amount, converted by molar mass. Where two headings read alike, the source gives them in different places. Marks after values point to notes of the source that are not given here.

`C[C@]12CC(=O)[C@@H](O)[C@](C)(CO)[C@@H]1CC[C@@]1(C)c3cocc3CC[C@H]21` [Composition 2, spongiadiol]: half-maximal inhibition in data set [1] (IC50) required 0.5 µg/mL (≈ 1.5 µM). Also, the “VSV Activity” value in data set [2] (0.5 μg/disk) is “++”; in data set [2] (1 μg/disk), “+++”. The “HSV-1 Activity” value in data set [3] (0.5 μg/disk) is listed as “+++”.
In data set [1], `C[C@]12C[C@@H](O)C(=O)[C@](C)(CO)[C@@H]1CC[C@@]1(C)c3cocc3CC[C@H]21` [Composition 1, isospongiadiol] had an IC50 of 5 µg/mL (≈ 15 µM). Moreover, the activity at 1 µg/mL was greater than 90% in data set [4] (dose 1 μg/ml); greater than 90% in data set [5] (A549, dose 1 μg/ml); greater than 90% in data set [6] (dose 1 μg/ml). Moreover, the activity at 10 µg/mL in data set [4] (dose 10 μg/ml) was 25 to 49%; in data set [5] (A549, dose 10 μg/ml), 25 to 49%; in data set [6] (dose 10 μg/ml), 25 to 49%. Also, the activity at 50 µg/mL is less than 25% in data set [4] (dose 50 μg/ml); less than 25% in data set [5] (A549, dose 50 μg/ml); less than 25% in data set [6] (dose 50 μg/ml). In data set [7], the minimal effective concentration is no less than 10 µg/mL. For the same molecule, in data set [2] (20 μg/disk), the “VSV Activity” value is “+”. Besides, the “HSV-1 Activity” value is “++” in data set [3] (2 μg/disk) and “+++” in data set [3] (20 μg/disk). For the same molecule, the Cytotoxicity in data set [8] (2 μg/disk) and in data set [8] (20 μg/disk) was 0* in each case.
Regarding `C[C@]12CC(=O)[C@H](O)[C@](C)(CO)[C@@H]1CC[C@@]1(C)c3cocc3CC[C@H]21` [Composition 3, epispongiadiol], in data set [1], the IC50 came out at 8 µg/mL (≈ 24.1 µM). Besides, in data set [2] (20 μg/disk), the “VSV Activity” value is “+”. Also, the “HSV-1 Activity” value in data set [3] (6.25 μg/disk) was “+”; in data set [3] (12.5 μg/disk), “++”.
